Results from US20090311246A1, “Method of Enhancing Remyelination in Demyelinating Diseases of the Central Nervous System” (priority 2008, published 2009).
“Also recorded” adds a separate entry of the source.

What was measured:
[1] = system: sera from SFV-infected B6 mice; format: binding
Method: To measure the antibody response of both WT and γδ KO mice against SFV and two of the peptides of the SFV envelope protein, E2, an indirect ELISA was performed. Sera were pooled from 4-6 SFV-infected WT, and 3 KO, mice on days 0, 7, 14, 21 and 35 pi. Briefly, Immunolon 2HB 96 well microtiter plates (VWR, Bridge Port, N.J.) were coated with 1 μg/well of each antigen in 100 μl/well carbonate buffer overnight at room temperature. After washing, the plates were blocked and serum samples were added. […] After washing, biotinylated goat anti-mouse Igs (BD Pharmingen, Torreyana, Calif.), Strepavidin conjugated to Horse Radish Peroxidase (Vector Laboratories, Burlingame, Calif.), and OPD substrate (Sigma, St. Louis, Mo.) were used, as previously described (4, 9). […] Values were considered to be positive when they were >0.3 OD units and exceeded the mean value plus three standard deviations for antibody response on day 0 pi of mice of the same strain. […]
In some instances day 0 OD values were high, thus making the differences appear small. Therefore, to account for such discrepancy, we also determined the ratio of the highest day (day 15 or 21) over day 0.

[2] = system: Rabbit Anti-SFV polyclonal antibody; assay: Indirect ELISA of rabbit anti-SFV polyclonal IgG against viral and myelin antigens; format: binding
Method: The total IgG fraction was commercially prepared (Strategic Biosolutions, Ramona, Calif.) from pooled sera of 3 rabbits immunized once with UV-inactivated SFV (A774 strain) emulsified in CFA and boosted 3 times with antigen in IFA at weeks 3, 5, and 7. The IgG fraction of the pooled antisera was purified by ion-exchange chromatography and contained 8.7 mg IgG/ml of PBS. Antibody activities to SFV and peptides of SFV, to E2, and to recombinant ® MOG and its peptides were confirmed by ELISA. Normal rabbit IgG, isolated from pooled normal rabbit sera by ion-exchange chromatography (Signa Chemical Co., St. Louis, Mo.), was dissolved in saline. Protein concentration was determined by the Bradford assay (Sigma), using normal rabbit IgG as the standard. The IgG solutions were diluted to 3 mg protein/ml in saline and sterilized by passage through a 0.22 μm filter (Millipore Corp., Bedford, Mass.).
To measure the antibody response of both WT and γδ KO mice against SFV and two of the peptides of the SFV envelope protein, E2, an indirect ELISA was performed. Sera were pooled from 4-6 SFV-infected WT, and 3 KO, mice on days 0, 7, 14, 21 and 35 pi. Briefly, Immunolon 2HB 96 well microtiter plates (VWR, Bridge Port, N.J.) were coated with 1 μg/well of each antigen in 100 μl/well carbonate buffer overnight at room temperature. After washing, the plates were blocked and serum samples were added. […] After washing, biotinylated goat anti-mouse Igs (BD Pharmingen, Torreyana, Calif.), Strepavidin conjugated to Horse Radish Peroxidase (Vector Laboratories, Burlingame, Calif.), and OPD substrate (Sigma, St. Louis, Mo.) were used, as previously described (4, 9). […] Values were considered to be positive when they were >0.3 OD units and exceeded the mean value plus three standard deviations for antibody response on day 0 pi of mice of the same strain.
The polyclonal rabbit anti SFV antibody was commercially prepared (Strategic Biosolutions, Ramona, Calif.) from pooled sera of 3 rabbits, immunized once with UV-inactivated SFV (A774 strain) emulsified in CFA and boosted 3 times with antigen in IFA at weeks 3, 5, and 7.

[3] = system: SFV-infected WT and γδ KO mice; assay: E2 137-151 peptide immunization during SFV disease: histopathology, remyelination in one micron brain sections; format: in vivo; settings: for Remyelination in KO mice: peptide-immunized SFV-infected γδ KO mice, day 28 pi
Excerpt: FIG. 4 Remyelination in E2 137-151 immunized, SFV-infected WT and γδ-KO B6 mice. All figures come from one micron epoxy sections taken from brain tissues, fixed in 2.5% glutaraldehyde/1% osmium tetroxide, embedded in epoxy resin, stained with toluidine blue and photographed by light microscopy.
(§1) In order to be able to detect the de- and remyelination accurately, at the end of the experiment, mice will be sacrificed by an overdose of sodium pentobarbital and perfused by intracardiac puncture with Trumps fixative, containing 4% paraformaldehyde and 1% glutaraldehyde. Brains and spinal cords are removed and post fixed in osmium textroxide. Each brain is sectioned coronally into three pieces by cuts through infandibulum and optic chiasm. Spinal cord tissues will be also harvested and processed. Every third block (10-12 blocks per spinal cord, cervical to lumbar range) will be embedded, along with brain sections, in Araldite plastic. The embedded tissues will be cross-sectioned at 1 μm thickness, and the slides stained with toluidine blue or 4% paraphenylenediamine to highlight the myelin sheets. We have studied the one-micron thin sections of the brains of SFV-infected WT and KO on days of 21-42 postinfection.
as §1, with “[…] These lesions were impossible to quantitate due to very small sizes of nerve fibers. Consequently we plan to study” for “The embedded tissues will be cross-sectioned at 1 μm thickness, and”, “cross” for “slides stained with toluidine blue or 4% paraphenylenediamine to highlight the myelin sheets. We have studied the one-micron thin”, “spinal cords to quantitate these lesins, as has been previously reported (71). […]” for “the brains of SFV-infected WT and KO on days of 21-42 postinfection.”

B6 mice with EAE = assay: Inflammation, demyelination and remyelination in lumbar spinal cord of E2 137-151 treated EAE mice; format: in vivo
Excerpt: All figures come from one micron epoxy sections taken from brain tissues, fixed in 2.5% glutaraldehyde/1% osmium tetroxide, embedded in epoxy resin, stained with toluidine blue and photographed by light microscopy.
as §1
In order to be able to analyze de- and remyelination accurately in untreated and E2 137-151 treated LAE mice, one micron sections of lumbar spinal cords of all mice, were analyzed as described above for SFV-infected mice, on different days post immunization. […] Widespread Wallerian degeneration evidenced by dilated and collapsed myelin sheaths, some containing axonal remnants, was also observed. Cellular infiltration was present within the meningeal space as well. […] Spinal cord white matter of normal control mice is also shown for comparison (FIG. 8C)

Structure (SMILES): CC[C@H](C)[C@H](NC(=O)[C@H](CCC(=O)O)NC(=O)[C@H](CCCCN)NC(=O)CNC(=O)[C@H](Cc1ccc(O)cc1)NC(=O)[C@H](Cc1c[nH]cn1)NC(=O)[C@@H]1CCCN1C(=O)[C@H](CCCNC(=N)N)NC(=O)[C@@H](NC(=O)[C@@H](NC(=O)[C@H](Cc1ccccc1)NC(=O)[C@H](CCCCN)NC(=O)[C@H](CCC(=O)O)NC(=O)[C@H](CCCNC(=N)N)NC(=O)CN)[C@@H](C)O)[C@@H](C)CC)C(=O)O [E2 137-151]
- Dh / D0 (Ratio) ([1]; OD of highest day (day 15 or 21) over day 0, SFV-infected sera): 3.96
- Dh−D0 (difference) ([1]; OD of highest day minus day 0, SFV-infected sera): 0.406
- Net change in the levels of antibody (ΔOD), D7-9 ([1]; SFV-infected mice sera, days 7-9 pi, day 0 OD subtracted): 0.84 ± 0.39 ΔOD
- Net change in the levels of antibody (ΔOD), D14-16 ([1]; SFV-infected mice sera, days 14-16 pi, day 0 OD subtracted): 1.83 ± 0.47 ΔOD
- Net change in the levels of antibody (ΔOD), D21-23 ([1]; SFV-infected mice sera, days 21-23 pi, day 0 OD subtracted): 2.19 ± 0.76 ΔOD
- Net change in the levels of antibody (ΔOD), D31-35 ([1]; SFV-infected mice sera, days 31-35 pi, day 0 OD subtracted): 2.08 ± 0.67 ΔOD
- Reactivity of sera from SFV-infected B6 mice with the antigen in ELISA ([1]; vs day 0): reacted
- Rabbit Anti-SFV Ab, OD at 490 nm ([2]; 10^−2 diluted, indirect ELISA): 1.107 OD
- Immunoreactivity of IgG fraction of serum from rabbits immunized with UV-inactivated SFV ([2]; ELISA): strong immunoreactivity
- OD Difference ([2]; Rabbit Anti-SFV Ab minus Normal Rabbit Serum): 0.934 OD
- Remyelination in WT mice ([3]; peptide-immunized SFV-infected WT mice): normal remyelination
- Remyelination in KO mice [3]: advanced remyelination
- Remyelination in KO mice ([3]; listed as E2 137-151 peptide): early remyelination; also recorded: promoted remyelination
- Wallerian degeneration in lumbar spinal cord (B6 mice with EAE; day 33): No wallerian degeneration
- Inflammation in lumbar spinal cord (B6 mice with EAE; day 33 pi): little to no inflammation; also recorded: No wallerian degeneration and inflammation is present
- Remyelination in spinal cord (B6 mice with EAE; day 33 pi): some remyelinating fibers; also recorded: some fibers display remyelination
- Remyelination in spinal cord (B6 mice with EAE; day 33 pi, listed as E2 137-151 peptide): induced remyelination
